# Marks after values point to notes of the source that are not given here.
# Legend:
# [1] = system: Helicobacter pylori (Hp) ATCC43504; test: In vitro anti-Helicobacter pylori effect, minimum inhibitory concentration (filter paper on Columbia Blood Agar Plate); format: cell-based; conditions: Helicobacter pylori ATCC43504, 37° C. micro-aerobic, 72 hours
# Candida albicans (98001) = test: Selective inhibitory effect, in vitro MIC (broth dilution, turbidity); format: cell-based; conditions: 48 h, read-out: In vitro Minimum Inhibitory Concentration MIC
# Source text: (§1) Strains: Lactobacillus acidophilus, E. coli, Staphylococcus epidermidis, yeast, thermophilic Bifidobacterium, Staphylococcus aureus (26112), Alpha-Hemolytic Streptococcus (32209), Shigella (32013), Streptococcus pneumoniae (31001), Catarrhal, Corynebacterium diphtheriae (38101), Escherichia coli (44113), Pseudomonas aeruginosa (10211), Salmonella Typhi and Candida albicans (98001), Catarrhal is isolated from specimen collected from the throat in the bacterial laboratory, Candida albicans is donated by Guangzhou Institute for Food and Drug Control, all other strains are provided by Beijing Institute for Food and Drug Control; Trichophyton gypseum (4097), Trichophyton cerebriforme, Trichophyton tonsurans, Microsporum gypseum, Microsporum lanosum, Epidermophyton floccosum (previously known as Trichophyton floccosum) and Trichophyton rubrum are donated by Shanghai Huashan Hospital.
# (§2) 3. Culture medium: nutrient broth, 1% dextrose broth, 1% serum broth, Sabouraud agar plate, prepared by conventional preparation method.
# (§3) Drug preparation: Use nutrient broth to prepare a series of 14 drug solution in which the content of drug per ml are, 0.1 g, 0.05 g, 0.025 g . . . 1.22×10^−5 g respectively and the total volume of each test tube is 1 ml, and sterile by steam sterilization. […]
# [2] = system: Trichophyton cerebriforme; test: Selective inhibitory effect, in vitro MIC; format: cell-based; conditions: read-out: In vitro Minimum Inhibitory Concentration MIC
# Source text: as §1, §2
# (§4) Drug preparation: Use nutrient broth to prepare a series of 14 drug solution in which the content of drug per ml are, 0.1 g, 0.05 g, 0.025 g . . . 1.22×10^−5 g respectively and the total volume of each test tube is 1 ml, and sterile by steam sterilization. For Streptococcus testing, 1% glucose is added to the sterile drug solution, for Streptococcus pneumoniae and Corynebacterium diphtheria, 10% inactivated rabbit serum is added, and for Candida albicans, the drug solution is prepared by using Sabouraud broth.
# (§5) Control: for strain control, testing bacteria is added to non-drug culture media; for drug control, no bacteria is added to the drug solution.
# (§6) For each drug solution at different concentration and for bacteria control, add 1 ml of 1:2000 testing bacteria solution (8 hours cultured substance) to each tube, incubate bacteria culture at 37° C. for 18 hours and observe the results. For Candida albicans, 24 hours cultured substance is used, and incubate bacteria culture at 28° C. for 48 hours after bacteria is added to the drug solution and then observe the results. Turbidity is the indicator and visually observe each tube to determine if there is any bacterial growth.
# (§7) Determine minimum inhibitory concentration (MIC): MIC is the lowest concentration of an antimicrobial that will inhibit the visible growth of a microorganism.
# Microsporum gypseum = test: Selective inhibitory effect, in vitro MIC; format: cell-based; conditions: Nannizzia gypsea, read-out: In vitro Minimum Inhibitory Concentration MIC
# Source text: as §1, §2, §4, §5, §6, §7
# Epidermophyton floccosum = test: Selective inhibitory effect, in vitro MIC; format: cell-based; conditions: read-out: In vitro Minimum Inhibitory Concentration MIC
# Source text: as §1, §2, §4, §5, §6, §7
# [3] = system: Trichophyton gypseum (4097); test: Selective inhibitory effect, in vitro MIC; format: cell-based; conditions: Nannizzia gypsea, read-out: In vitro Minimum Inhibitory Concentration MIC
# Source text: as §1, §2, §4, §5, §6, §7
# Microsporum lanosum = test: Selective inhibitory effect, in vitro MIC; format: cell-based; conditions: read-out: In vitro Minimum Inhibitory Concentration MIC
# Source text: as §1, §2, §4, §5, §6, §7
# Trichophyton rubrum = test: Selective inhibitory effect, in vitro MIC; format: cell-based; conditions: read-out: In vitro Minimum Inhibitory Concentration MIC
# Source text: as §1, §2, §4, §5, §6, §7
# Trichophyton tonsurans = test: Selective inhibitory effect, in vitro MIC; format: cell-based; conditions: read-out: In vitro Minimum Inhibitory Concentration MIC
# Source text: as §1, §2, §4, §5, §6, §7
# Helicobacter pylori [4] = test: In vivo anti-Helicobacter pylori effect, Hp infection model, carbol-fuchsin staining of stomach tissue; parameters: species or system BALB/c mice
# Experimental: (§8) Take SPF (specific pathogen free) BALB/c mice, equal numbers of male and female, each weight 18˜20 g; divide randomly into three groups, which are normal control group, model control group and triple therapy group. Give the corresponding experimental drugs according to table 1 below. Hp infection model is prepared by using antibiotics and oral gavage of Hp. Day 1, oral gavage 0.5 ml/mouse antibiotics mixture (0.25 ml ampicillin (20 mg/ml), 0.15 ml gentamicin (4 mg/ml), 0.1 ml azithromycin (50 mg/ml)) for three consecutive days for all testing animals, use equal volume of physiological saline for normal control group; starting from day 4, water fasting for 12 hours, oral gavage freshly prepared Hp suspended solution (0.5 ml/mouse/day, concentration 10^8 CFU/ml) for seven consecutive days, use equal volume of physiological saline for normal control group. Starting from day 11, oral gavage testing drug to the testing animals (use equal volume of physiological saline for normal control group), 1 time per day for 8 consecutive weeks. After the last drug administration, fasting for 24 hours. Take serum sample by orbital bleeding and centrifugation. Test for Helicobacter pylori urease antibody (according to the instruction of the instrument); sacrifice mice, tissue from pyloric antrum is first taken for rapid urease test and then observe for 3 minutes, and determine the test results in which strong positive refers to color change at peripheral portion from yellow to red within 1 minute, weak positive refers to color change within 3 minutes, and negative refers to no color change; the remaining stomach tissue is fixed in 10% formalin, then embed and cutting for carbol-fuchsin test, observe the Hp infection condition of the gastric mucosa and determine the condition.
# Histopathological findings: after staining stomach tissue by carbol-fuchsin method, the Hp become […] in color, have a curved or rod shape, and mainly locate in gastric pit surface and mucus.
# Helicobacter pylori [5] = test: In vivo anti-Helicobacter pylori effect, Hp infection model, rapid urease test of pyloric antrum tissue; parameters: species or system BALB/c mice; conditions: 1 time per day for 8 weeks
# Experimental: as §8
# [6] = system: Streptococcus pneumoniae (31001); test: Selective inhibitory effect, in vitro MIC (broth dilution, turbidity); format: cell-based; conditions: 10% inactivated rabbit serum added, 37° C., 18 hours, read-out: In vitro Minimum Inhibitory Concentration MIC
# Source text: as §1, §2, §3
# in vivo [7] = conditions: orogastric gavage; for LD50 at 14 days: both, KM, mouse, in vivo, po, Bliss method
# Experimental: (§9) 1.3 Testing animal: KM mice, SPF grade, weight 18-22 g, equal numbers of male and female, obtained from Animal Laboratory Center of Guangzhou University of Chinese Medicine, Certificate number: SCXK (Yue) 2008-0020.
# (§10) 2.1 Preparation of drug solution: weight a predetermined quantity of patchouli alcohol and put it into a beaker, add suitable amount of peanut oil into the beaker as solvent, mix while heating until the patchouli alcohol is dissolved. Cool under room condition and then add peanut oil to the predetermined amount to obtain the patchouli alcohol solution.
# (§11) 2.2 Animal grouping: Take 200 mice, weight between 18˜22 g, divided by weight and randomly divided into 4 groups, namely: orogastric gavage drug group, orogastric gavage control group (equal volume of peanut oil is used), intraperitoneal injection drug group, Intraperitoneal injection control group (equal volume of peanut oil is used), each group includes 50 mice, equal numbers of male and female, raise for one week before experiment for the mice to adapt to the environment, water fasting for 24 hours before experiment.
# Set the initial dose at 7.90 g/kg, at a ratio of 1:0.75 divide 5 groups, each group includes 10 mice, equal numbers of male and female, give patchouli alcohol solution to mice once by orogastric gavage according to the dosage at 2.5 g/kg, 3.33 g/kg, 4.44 g/kg, 5.93 g/kg, 7.90 g/kg for each group. Observe consecutively for 14 days, record toxicity reaction and lethal rate every day, and calculate the medium lethal dose (LD50) by Bliss method.
# in vivo [8] = conditions: for LD50 at 14 days: both, KM, mouse, in vivo, Bliss method
# Experimental: as §9, §10, §11
# Set the initial dose at 6.32 g/kg, at a ratio of 1:0.75 divide 5 groups, each group includes 10 mice, equal numbers of male and female, give patchouli alcohol solution to each of the mice once by intraperitoneal injection according to the dosage at 2.0 g/kg, 2.67 g/kg, 3.56 g/kg, 4.70 g/kg, 6.32 g/kg for each group. Observe consecutively for 14 days, record toxicity reaction and lethal rate every day, and calculate the medium lethal dose (LD50) by Bliss method.
# Helicobacter pylori [9] = test: In vivo anti-Helicobacter pylori effect, Hp infection model, serum urease antibody to Helicobacter pylori; parameters: species or system BALB/c mice; conditions: 1 time per day for 8 weeks
# Experimental: as §8
# [10] = cited from earlier work
# [11] = High Dose 40 mg/kg oral gavage, 10 animals
# [12] = Low Dose 10 mg/kg oral gavage, 11 animals
# [13] = Medium Dose 20 mg/kg oral gavage, 11 animals
# [14] = mice, intraperitoneal injection
# [15] = mice, intraperitoneal injection, pre-test
# [16] = 10 mg/kg oral gavage, 11 animals
# [17] = 20 mg/kg oral gavage, 11 animals
# [18] = 40 mg/kg oral gavage, 10 animals
compound,measurement,setting,value
"CC1(C)S[C@@H]2[C@H](NC(=O)[C@H](N)c3ccc(O)cc3)C(=O)N2[C@H]1C(=O)O [Amoxicillin, reference compound]",MIC (minimum inhibitory concentration),[1],120 µg/mL
CC(=O)N1CCN(c2ccc(OCC3COC(Cn4ccnc4)(c4ccc(Cl)cc4Cl)O3)cc2)CC1 (stereo not drawn) [Ketoconazole],MIC,Candida albicans (98001),12200 µg/mL
same,MIC,[2],383 µg/mL
same,MIC,Microsporum gypseum,383 µg/mL
same,MIC,Epidermophyton floccosum,383 µg/mL
same,MIC,[3],383 µg/mL
same,MIC,Microsporum lanosum,24500 µg/mL
same,MIC,Trichophyton rubrum,24400 µg/mL
same,MIC,Trichophyton tonsurans,49000 µg/mL
"C[C@H]1CC[C@@]2(O)C(C)(C)[C@@H]3CC[C@@]2(C)[C@H]1C3 [Patchouli Alcohol, (1R,4S,4aS,6R,8aS)-4,a,9,9-tetramethyloctahydro-1,6-methanonaphthalen-1(2H)-ol]",animals with blue Hp found in the gastric pit (positive/total),Helicobacter pylori [4]; high dose group,6/11
same,infection rate,Helicobacter pylori [4]; high dose group,60%
same,animals with blue Hp found in the gastric pit and the mucosal surface (positive/total),Helicobacter pylori [4]; low dose group,9/11
same,infection rate,Helicobacter pylori [4]; low dose group,81.81%
same,animals with blue Hp found in the gastric pit (positive/total),Helicobacter pylori [4]; medium dose group,7/11
same,infection rate,Helicobacter pylori [4]; medium dose group,63.63%
same,Strong positive (count),Helicobacter pylori [5]; [11],2 count
same,Total Positive Rate (%),Helicobacter pylori [5]; [11],40.00%
same,Weak positive (count),Helicobacter pylori [5]; [11],2 count
same,Strong positive (count),Helicobacter pylori [5]; [12],0 count
same,Total Positive Rate (%),Helicobacter pylori [5]; [12],36.36%
same,Weak positive (count),Helicobacter pylori [5]; [12],4 count
same,Strong positive (count),Helicobacter pylori [5]; [13],0 count
same,Total Positive Rate (%),Helicobacter pylori [5]; [13],27.27* %
same,Weak positive (count),Helicobacter pylori [5]; [13],3 count
same,MIC,[6],510 µg/mL
same,LD50 at 14 days,"in vivo [7]; LD50 95% confidence interval lower limit, mice",4040 mg/kg
same,LD50 at 14 days,"in vivo [7]; LD50 95% confidence interval upper limit, mice",5500 mg/kg
same,LD50 at 14 days,"in vivo [7]; LD50, mice, peanut oil solution",4690 mg/kg
same,autopsy of the dead mice,in vivo [7]; mice,no obvious abnormality is found in major organs
same,time at which death usually occurs,in vivo [7]; mice,6˜12 hours
same,maximum lethal dose,"in vivo [7]; mice, pre-test",7900 mg/kg
same,minimum lethal dose,"in vivo [7]; mice, pre-test",2500 mg/kg
same,LD50 at 14 days,"in vivo [8]; LD50, mice, intraperitoneal acute toxicity (sentence prints orogastric gavage), peanut oil solution",3140 mg/kg
same,LD50 at 14 days,"in vivo [8]; ip, LD50 95% confidence interval lower limit, mice, intraperitoneal acute toxicity",2660 mg/kg
same,LD50 at 14 days,"in vivo [8]; ip, LD50 95% confidence interval upper limit, mice, intraperitoneal acute toxicity",3680 mg/kg
same,autopsy of the dead mice,in vivo [8]; [14],no obvious abnormality is found in major organs
same,time at which death usually occurs,in vivo [8]; [14],6˜12 hours
same,maximum lethal dose,in vivo [8]; [15],6320 mg/kg
same,minimum lethal dose,in vivo [8]; [15],2000 mg/kg
same,Positive (Count),Helicobacter pylori [9]; [16],0 Count
same,Positive rate (%),Helicobacter pylori [9]; [16],0.00** %
same,Positive (Count),Helicobacter pylori [9]; [17],0 Count
same,Positive rate (%),Helicobacter pylori [9]; [17],0.00** %
same,Positive (Count),Helicobacter pylori [9]; [18],0 Count
same,Positive rate (%),Helicobacter pylori [9]; [18],0.00** %
same,MIC (minimum inhibitory concentration),[1],78 µg/mL
same,solubility in ethanol and ether and common organic solvent,"[10]; ethanol, ether, common organic solvent",soluble
same,solubility in water,[10]; water,insoluble

# From patent US20140031434A1, “Use of Patchouli Alcohol in Preparation of Drug Against Helicobacter Pylori” (priority 2011, published 2014)
